Target: T1, oxidase type xanthine oxidase (derived from buttermilk) (Bos taurus, UniProt P80457)
T1 construct: oxidase type xanthine oxidase (derived from buttermilk, supplied by Calbiochem Novabiochem Corp.); purchased Calbiochem Novabiochem Corp; host or cells: buttermilk (natural source)
Assay: Xanthine oxidase inhibitory activity (absorbance change at 290 nm)
Assay type: biochemical
Conditions: xanthine substrate, 100 mM phosphate buffer, absorbance at 290 nm for 5 minutes; read-out: Inhibitory Activity (50% inhibitory concentration with respect to oxidase type xanthine oxidase)
Method: The xanthine oxidase inhibitory activity was measured for the compounds synthesized according to the above Examples.
After a test compound was dissolved in DMSO (manufactured by Sigma Co.) so that the concentration is 20 mM, the test compound was prepared and used at a desired concentration at the time of use.
The evaluation of the xanthine oxidase inhibitory activity of the compounds of the present invention was conducted by partially modifying the method described in the literature (Method Enzymatic Analysis, 1, 521-522, 1974). The present evaluation is based on the oxidase type xanthine oxidase inhibitory activity evaluation. That is, a xanthine (manufactured by Sigma Co.) solution prepared at 10 mM in advance using a 20 mM sodium hydroxide solution was adjusted to 30 μM using a 100 mM phosphate buffer solution, and 75 μL/well of each solution was added into a 96-well plate. Aliquots (1.5 μL/well) of each test sample, which was diluted with DMSO so that the concentration is 100 times the final concentration, were added into a 96-well plate, and after mixing, the absorbance at 290 nm was measured by a microplate reader SPECTRA MAX Plus 384 (manufactured by Molecular Devices, LLC). Subsequently, oxidase type xanthine oxidase (derived from buttermilk, supplied by Calbiochem Novabiochem Corp.) was prepared at 30.6 mU/mL using a 100 mM phosphate buffer solution and 73.5 μL/well of each solution was added. Immediately after mixing, the change in absorbance at 290 nm was measured for 5 minutes. The enzyme activity when DMSO was used instead of a test compound solution was defined as 100%, the inhibitory rate of the test compounds was calculated and the 50% inhibitory concentration with respect to oxidase type xanthine oxidase was calculated by fitting to the dose-response curve.
Note that the symbols (+, ++, +++) in the table represent inhibitory activity values as shown below.

T1 sequence (P80457 whole entry): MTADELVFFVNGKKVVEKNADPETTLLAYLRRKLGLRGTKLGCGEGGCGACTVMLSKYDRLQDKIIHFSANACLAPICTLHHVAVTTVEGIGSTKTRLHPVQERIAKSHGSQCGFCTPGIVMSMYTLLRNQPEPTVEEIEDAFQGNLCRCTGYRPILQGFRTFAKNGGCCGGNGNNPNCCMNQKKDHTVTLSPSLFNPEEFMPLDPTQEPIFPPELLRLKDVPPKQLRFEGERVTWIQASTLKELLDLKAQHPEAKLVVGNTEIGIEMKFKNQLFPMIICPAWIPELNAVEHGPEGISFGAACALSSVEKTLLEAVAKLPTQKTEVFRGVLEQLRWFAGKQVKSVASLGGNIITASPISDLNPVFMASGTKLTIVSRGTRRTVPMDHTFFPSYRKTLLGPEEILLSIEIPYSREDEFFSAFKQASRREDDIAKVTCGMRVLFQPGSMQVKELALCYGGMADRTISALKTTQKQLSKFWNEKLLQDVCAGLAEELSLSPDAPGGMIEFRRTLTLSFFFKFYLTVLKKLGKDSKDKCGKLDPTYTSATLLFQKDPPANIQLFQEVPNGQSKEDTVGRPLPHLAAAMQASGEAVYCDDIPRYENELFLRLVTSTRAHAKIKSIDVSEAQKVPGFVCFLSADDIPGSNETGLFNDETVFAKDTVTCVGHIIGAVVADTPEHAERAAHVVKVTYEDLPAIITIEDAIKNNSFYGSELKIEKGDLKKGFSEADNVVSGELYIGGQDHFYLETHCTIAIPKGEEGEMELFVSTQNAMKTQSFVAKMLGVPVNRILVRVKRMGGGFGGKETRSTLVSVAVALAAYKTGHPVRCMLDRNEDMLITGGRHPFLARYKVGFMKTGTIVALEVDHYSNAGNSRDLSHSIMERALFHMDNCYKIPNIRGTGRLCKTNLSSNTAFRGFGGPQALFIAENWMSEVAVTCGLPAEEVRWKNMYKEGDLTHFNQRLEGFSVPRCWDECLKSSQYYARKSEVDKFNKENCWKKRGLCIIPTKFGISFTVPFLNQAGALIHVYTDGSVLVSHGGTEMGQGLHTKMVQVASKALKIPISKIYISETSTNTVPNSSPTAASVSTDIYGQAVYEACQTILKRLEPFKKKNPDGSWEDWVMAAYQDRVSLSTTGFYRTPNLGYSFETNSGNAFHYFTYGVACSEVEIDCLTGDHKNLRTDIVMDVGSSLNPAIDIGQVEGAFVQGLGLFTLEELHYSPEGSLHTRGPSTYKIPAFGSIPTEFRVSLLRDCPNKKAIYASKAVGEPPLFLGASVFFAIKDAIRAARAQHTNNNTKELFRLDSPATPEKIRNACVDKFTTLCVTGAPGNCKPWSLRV

| Compound | IC50 |
| --- | --- |
| CCOc1ccccc1-c1cnc(-n2cc(C(=O)O)cn2)cc1C#N [Compound 3, 1-[4-cyano-5-(2-ethoxyphenyl)pyridin-2-yl]-1H-pyrazole-4-carboxylic acid] | 5 to 10 nM |
| Cc1ccccc1-c1cnc(-n2cc(C(=O)O)cn2)cc1C#N [Compound 4, 1-[4-cyano-5-(2-methylphenyl)pyridin-2-yl]-1H-pyrazole-4-carboxylic acid] | 5 to 10 nM |
| N#Cc1cc(-n2cc(C(=O)O)cn2)ncc1-c1ccccc1C(F)(F)F [Compound 8, 1-{4-cyano-5-[2-(trifluoromethyl)phenyl]pyridin-2-yl}-1H-pyrazole-4-carboxylic acid] | ≥ 10 nM |
| N#Cc1cc(-n2cc(C(=O)O)cn2)ncc1-c1ccccc1OC(F)(F)F [Compound 9, 1-{4-cyano-5-[2-(trifluoromethoxy)phenyl]pyridin-2-yl]-1H-pyrazole-4-carboxylic acid] | ≥ 10 nM |
| N#Cc1cc(-n2cc(C(=O)O)cn2)ncc1-c1cccc(F)c1 [Compound 11, 1-[4-cyano-5-(3-fluorophenyl)pyridin-2-yl]-1H-pyrazole-4-carboxylic acid] | 5 to 10 nM |
| N#Cc1cc(-n2cc(C(=O)O)cn2)ncc1-c1cccc(Cl)c1 [Compound 12, 1-[4-cyano-5-(3-chlorophenyl)pyridin-2-yl]-1H-pyrazole-4-carboxylic acid] | 5 to 10 nM |
| CCOc1cccc(F)c1-c1cnc(-n2cc(C(=O)O)cn2)cc1C#N [Compound 17, 1-[4-cyano-5-(2-ethoxy-6-fluorophenyl)pyridin-2-yl]-1H-pyrazole-4-carboxylic acid] | 5 to 10 nM |
| COc1cccc(F)c1-c1cnc(-n2cc(C(=O)O)cn2)cc1C#N [Compound 18, 1-[4-cyano-5-(2-fluoro-6-methoxyphenyl)pyridin-2-yl]-1H-pyrazole-4-carboxylic acid] | 5 to 10 nM |
| N#Cc1cc(-n2cc(C(=O)O)cn2)ncc1-c1ccoc1 [Compound 23, 1-[4-cyano-5-(furan-3-yl)pyridin-2-yl]-1H-pyrazole-4-carboxylic acid] | 5 to 10 nM |
| COc1cnccc1-c1cnc(-n2cc(C(=O)O)cn2)cc1C#N [Compound 24, 1-[4-cyano-5-(3-methoxypyridin-4-yl)pyridin-2-yl]-1H-pyrazole-4-carboxylic acid] | ≥ 10 nM |
| N#Cc1cc(-n2cc(C(=O)O)cn2)ncc1-c1cccnc1 [Compound 25, 1-[4-cyano-5-(pyridin-3-yl)pyridin-2-yl]-1H-pyrazole-4-carboxylic acid] | ≥ 10 nM |
| Cc1nn(-c2cc(C#N)c(-c3ccccc3)cn2)cc1C(=O)O [Compound 26, 1-(4-cyano-5-phenylpyridin-2-yl)-3-methyl-1H-pyrazole-4-carboxylic acid] | ≥ 10 nM |
| CC(C)c1nn(-c2cc(C#N)c(-c3ccccc3)cn2)cc1C(=O)O [Compound 27, 1-(4-cyano-5-phenylpyridin-2-yl)-3-(propan-2-yl)-1H-pyrazole-4-carboxylic acid] | ≥ 10 nM |
| Cc1nn(-c2cc(C#N)c(-c3ccccc3)cn2)c(C)c1C(=O)O [Compound 28, 1-(4-cyano-5-phenylpyridin-2-yl)-3,5-dimethyl-1H-pyrazole-4-carboxylic acid] | ≥ 10 nM |
| N#Cc1cc(-n2cc(C(=O)O)cn2)ncc1-c1ccc(F)cc1 [Compound 29, 1-[4-cyano-5-(4-fluorophenyl)pyridin-2-yl]-1H-pyrazole-4-carboxylic acid] | 1 to 5 nM |
| CCOc1cccc(-c2cnc(-n3cc(C(=O)O)cn3)cc2C#N)c1 [Compound 30, 1-[4-cyano-5-(3-ethoxyphenyl)pyridin-2-yl]-1H-pyrazole-4-carboxylic acid] | 1 to 5 nM |
| CCCOc1cccc(-c2cnc(-n3cc(C(=O)O)cn3)cc2C#N)c1 [Compound 31, 1-[4-cyano-5-(3-propoxyphenyl)pyridin-2-yl]-1H-pyrazole-4-carboxylic acid] | 1 to 5 nM |
| N#Cc1cc(-n2cc(C(=O)O)cn2)ncc1-c1ccc(F)cc1F [Compound 32, 1-[4-cyano-5-(2,4-difluorophenyl)pyridin-2-yl]-1H-pyrazole-4-carboxylic acid] | 1 to 5 nM |
| Cc1ccc(-c2cnc(-n3cc(C(=O)O)cn3)cc2C#N)c(F)c1 [Compound 33, 1-[4-cyano-5-(2-fluoro-4-methylphenyl)pyridin-2-yl]-1H-pyrazole-4-carboxylic acid] | 1 to 5 nM |
| Cc1ccc(F)c(-c2cnc(-n3cc(C(=O)O)cn3)cc2C#N)c1 [Compound 34, 1-[4-cyano-5-(2-fluoro-5-methylphenyl)pyridin-2-yl]-1H-pyrazole-4-carboxylic acid] | 1 to 5 nM |
| N#Cc1cc(-n2cc(C(=O)O)cn2)ncc1-c1cc(F)ccc1F [Compound 35, 1-[4-cyano-5-(2,5-difluorophenyl)pyridin-2-yl]-1H-pyrazole-4-carboxylic acid] | 1 to 5 nM |
| Cc1cccc(-c2cnc(-n3cc(C(=O)O)cn3)cc2C#N)c1F [Compound 36, 1-[4-cyano-5-(2-fluoro-3-methylphenyl)pyridin-2-yl]-1H-pyrazole-4-carboxylic acid] | 1 to 5 nM |
| Cc1cc(-c2cnc(-n3cc(C(=O)O)cn3)cc2C#N)ccc1F [Compound 37, 1-[4-cyano-5-(4-fluoro-3-methylphenyl)pyridin-2-yl]-1H-pyrazole-4-carboxylic acid] | 1 to 5 nM |
| Cc1cccc(-c2cnc(-n3cc(C(=O)O)cn3)cc2C#N)c1C [Compound 38, 1-[4-cyano-5-(2,3-dimethylphenyl)pyridin-2-yl]-1H-pyrazole-4-carboxylic acid] | 1 to 5 nM |
| Cc1ccc(-c2cnc(-n3cc(C(=O)O)cn3)cc2C#N)cc1F [Compound 39, 1-[4-cyano-5-(3-fluoro-4-methylphenyl)pyridin-2-yl]-1H-pyrazole-4-carboxylic acid] | 1 to 5 nM |
| N#Cc1cc(-n2cc(C(=O)O)cn2)ncc1-c1ccc(F)c(Cl)c1 [Compound 40, 1-[4-cyano-5-(3-chloro-4-fluorophenyl)pyridin-2-yl]-1H-pyrazole-4-carboxylic acid] | 5 to 10 nM |

Other lines, results leading:

| IC50 | Compound |
| --- | --- |
| 1 to 5 nM | 1-[5-(4-acetophenyl)-4-cyanopyridin-2-yl]-1H-pyrazole-4-carboxylic acid [Compound 71] |
| 1 to 5 nM | COc1ccc(-c2cnc(-n3cc(C(=O)O)cn3)cc2C#N)cc1 [Compound 2, 1-[4-cyano-5-(4-methoxyphenyl)pyridin-2-yl]-1H-pyrazole-4-carboxylic acid] |
| 1 to 5 nM | N#Cc1cc(-n2cc(C(=O)O)cn2)ncc1-c1ccccc1F [Compound 5, 1-[4-cyano-5-(2-fluorophenyl)pyridin-2-yl]-1H-pyrazole-4-carboxylic acid] |
| 1 to 5 nM | N#Cc1cc(-n2cc(C(=O)O)cn2)ncc1-c1ccccc1Cl [Compound 6, 1-[4-cyano-5-(2-chlorophenyl)pyridin-2-yl]-1H-pyrazole-4-carboxylic acid] |
| 1 to 5 nM | COc1ccccc1-c1cnc(-n2cc(C(=O)O)cn2)cc1C#N [Compound 7, 1-[4-cyano-5-(2-methoxyphenyl)pyridin-2-yl]-1H-pyrazole-4-carboxylic] |
| 1 to 5 nM | Cc1cccc(-c2cnc(-n3cc(C(=O)O)cn3)cc2C#N)c1 [Compound 10, 1-[4-cyano-5-(3-methylphenyl)pyridin-2-yl]-1H-pyrazole-4-carboxylic acid] |
| 1 to 5 nM | COc1cccc(-c2cnc(-n3cc(C(=O)O)cn3)cc2C#N)c1 [Compound 13, 1-[4-cyano-5-(3-methoxyphenyl)pyridin-2-yl]-1H-pyrazole-4-carboxylic acid] |
| 1 to 5 nM | Cc1ccc(-c2cnc(-n3cc(C(=O)O)cn3)cc2C#N)cc1 [Compound 14, 1-[4-cyano-5-(4-methylphenyl)pyridin-2-yl]-1H-pyrazole-4-carboxylic acid] |
| 1 to 5 nM | N#Cc1cc(-n2cc(C(=O)O)cn2)ncc1-c1ccc(Cl)cc1 [Compound 15, 1-[4-cyano-5-(4-chlorophenyl)pyridin-2-yl]-1H-pyrazole-4-carboxylic acid] |
| 1 to 5 nM | N#Cc1cc(-n2cc(C(=O)O)cn2)ncc1-c1ccc(O)cc1 [Compound 16, 1-[4-cyano-5-(4-hydroxyphenyl)pyridin-2-yl]-1H-pyrazole-4-carboxylic acid] |
| 1 to 5 nM | COc1cccc(-c2cnc(-n3cc(C(=O)O)cn3)cc2C#N)c1F [Compound 19, 1-[4-cyano-5-(2-fluoro-3-methoxyphenyl)pyridin-2-yl]-1H-pyrazole-4-carboxylic acid] |
| 1 to 5 nM | N#Cc1cc(-n2cc(C(=O)O)cn2)ncc1-c1cccc(F)c1F [Compound 20, 1-[4-cyano-5-(2,3-difluorophenyl)pyridin-2-yl]-1H-pyrazole-4-carboxylic acid] |
| 1 to 5 nM | N#Cc1cc(-n2cc(C(=O)O)cn2)ncc1-c1ccsc1 [Compound 21, 1-[4-cyano-5-(thiophen-3-yl)pyridin-2-yl]-1H-pyrazole-4-carboxylic acid] |
| 1 to 5 nM | Cc1ccsc1-c1cnc(-n2cc(C(=O)O)cn2)cc1C#N [Compound 22, 1-[4-cyano-5-(3-methylthiophen-2-yl)pyridin-2-yl]-1H-pyrazole-4-carboxylic acid] |
